Assay results taken from patent US6372804B1, “Noxious-insect repellent” (Kanebo, Ltd., priority 1991, dated 2002).

System: imagoes of the tiger mosquito, Aedes albopictus
Test: noxious-insect repellency test (treated forearm in a cage of tiger mosquitoes, percent repellency from biting marks)
Assay type: in vivo
Settings: lotion or milky lotion containing the compound, tiger mosquito imagoes
Description: In each example, the noxious-insect repellency test was conducted as follows:
Test method of noxious-insect repelling effect and durability thereof In order to assess the repelling effect against imagoes of the tiger mosquito, Aedes albopictus, the following test was conducted at a room temperature of 30° C. and a relative humidity of 70% in an air-conditioned room. 10 ml each of test samples was applied to left and right forearms. Each treated forearm was introduced into a wire gauze cage (20 cm L.×15 cm Dia.) containing 50 female and 50 male tiger mosquitoes 5-7 days old after eclosion, for 15 minutes to afford time for biting. The assessment was repeated 30 minutes, 1 hour, 2 hours, 4 hours and 6 hours after the test sample was applied. The number of marks made by biting within each biting time was counted and a percent repellency was calculated using the following formula:
Percent repellency=(X−Y)/X×100 (%)
X: the number of the marks made by biting when the test sample was not applied,
Y: the number of the marks made by biting when the test sample was applied.

Compound	noxious-insect repelling effect and durability (result in words)
CCCCC(O)C1CC(C)CCC1=O (stereo not shown) [2-(1-hydroxyamyl)-4-methyl-cyclohexanone]	excellent noxious-insect repelling effect and durability
CCCC(O)C1C(O)CCC1CC (stereo not shown) [2-(1-hydroxybutyl)-3-ethyl-cyclopentanol]	excellent noxious-insect repelling effect and durability
CCCC(O)C1C(=O)CCC1CC (stereo not shown) [2-(1-hydroxybutyl)-3-ethyl-cyclopentanone]	excellent noxious-insect repelling effect and durability
CC(O)C1C(O)CCC(C)C1C (stereo not shown) [2-(1-hydroxyethyl)-3,4-dimethyl-cyclohexanol]	excellent noxious-insect repelling effect and durability
CC(O)C1C(=O)CCC(C)C1C (stereo not shown) [2-(1-hydroxyethyl)-3,4-dimethyl-cyclohexanone]	excellent noxious-insect repelling effect and durability
CC1CCC(O)C(C(C)O)C1 (stereo not shown) [2-(1-hydroxyethyl)-4-methyl-cyclohexanol]	excellent noxious-insect repelling effect and durability
CC1CCC(=O)C(C(C)O)C1 (stereo not shown) [2-(1-hydroxyethyl)-4-methyl-cyclohexanone]	excellent noxious-insect repelling effect and durability
CC(O)C1CCCCCCCCC1O (stereo not shown) [2-(1-hydroxyethyl)-cyclodecanol]	excellent noxious-insect repelling effect and durability
CC(O)C1CCCCCCCCCCC1=O (stereo not shown) [2-(1-hydroxyethyl)-cyclododecanone]	excellent noxious-insect repelling effect and durability
CC(O)C1CCCCCC1O (stereo not shown) [2-(1-hydroxyethyl)-cycloheptanol]	excellent noxious-insect repelling effect and durability
CC(O)C1CCCCCC1=O (stereo not shown) [2-(1-hydroxyethyl)-cycloheptanone]	excellent noxious-insect repelling effect and durability
CC(O)C1CCCCCCC1O (stereo not shown) [2-(1-hydroxyethyl)-cyclooctanol]	excellent noxious-insect repelling effect and durability
CC(O)C1CCCCCCC1=O (stereo not shown) [2-(1-hydroxyethyl)-cyclooctanone]	excellent noxious-insect repelling effect and durability
CC1CCC(C(C)(C)O)C1=O (stereo not shown) [2-(1-hydroxyisopropyl)-5-methyl-cyclopentanone]	excellent noxious-insect repelling effect and durability
CCC(O)C1CC(C)CCC1O (stereo not shown) [2-(1-hydroxypropyl)-4-methyl-cyclohexanol]	excellent noxious-insect repelling effect and durability
CCC1(CO)CCCCC1O (stereo not shown) [2-hydroxymethyl-2-ethyl-cyclohexanol]	excellent noxious-insect repelling effect and durability
CCC1(CO)CCCC1O (stereo not shown) [2-hydroxymethyl-2-ethyl-cyclopentanol]	excellent noxious-insect repelling effect and durability
CC(C)C1(CO)CCCCC1O (stereo not shown) [2-hydroxymethyl-2-isopropyl-cyclohexanol]	excellent noxious-insect repelling effect and durability
CC(C)C1(CO)CCCC1O (stereo not shown) [2-hydroxymethyl-2-isopropyl-cyclopentanol]	excellent noxious-insect repelling effect and durability

Compound	noxious-insect repelling effect and durability (result in words)
CCCCCCCCC1(CO)CCCCC1O (stereo not shown) [2-hydroxymethyl-2-octyl-cyclohexanol]	excellent noxious-insect repelling effect and durability
CCCCCCCCC1(CO)CCCC1O (stereo not shown) [2-hydroxymethyl-2-octyl-cyclopentanol]	excellent noxious-insect repelling effect and durability
CCCCCCCCCCCC1(CO)CCCCC1O (stereo not shown) [2-hydroxymethyl-2-undecyl-cyclohexanol]	excellent noxious-insect repelling effect and durability
CCCCCCCCCCCC1(CO)CCCC1O (stereo not shown) [2-hydroxymethyl-2-undecyl-cyclopentanol]	excellent noxious-insect repelling effect and durability
CC1CCC(=O)C(CO)C1C (stereo not shown) [2-hydroxymethyl-3,4-dimethyl-cyclohexanone]	excellent noxious-insect repelling effect and durability
CC(C)(C)C1CCC(O)C(CO)C1 (stereo not shown) [2-hydroxymethyl-4-(t-butyl)-cyclohexanol]	excellent noxious-insect repelling effect and durability
CC(C)(C)C1CCC(=O)C(CO)C1 (stereo not shown) [2-hydroxymethyl-4-(t-butyl)-cyclohexanone]	excellent noxious-insect repelling effect and durability
CCC1CC(O)C(CO)C1 (stereo not shown) [2-hydroxymethyl-4-ethyl-cyclopentanol]	excellent noxious-insect repelling effect and durability
CCC1CC(=O)C(CO)C1 (stereo not shown) [2-hydroxymethyl-4-ethyl-cyclopentanone]	excellent noxious-insect repelling effect and durability
CC(C)C1CC(C)C(O)C(CO)C1 (stereo not shown) [2-hydroxymethyl-4-isopropyl-6-methyl-cyclohexanol]	excellent noxious-insect repelling effect and durability
CC1CC(C(C)C)CC(CO)C1=O (stereo not shown) [2-hydroxymethyl-4-isopropyl-6-methyl-cyclohexanone]	excellent noxious-insect repelling effect and durability
CC1CCC(=O)C(CO)C1 (stereo not shown) [2-hydroxymethyl-4-methyl-cyclohexanone]	excellent noxious-insect repelling effect and durability
O=C1CCCCCCCCCCC1CO (stereo not shown) [2-hydroxymethyl-cyclododecanone]	excellent noxious-insect repelling effect and durability
OCC1CCCCCCC1O (stereo not shown) [2-hydroxymethyl-cyclooctanol]	excellent noxious-insect repelling effect and durability
O=C1CCCCCCC1CO (stereo not shown) [2-hydroxymethyl-cyclooctanone]	excellent noxious-insect repelling effect and durability
CC(C)C(O)C1C2CCC(C)(C1O)C2(C)C (stereo not shown) [3-(1-hydroxy-2-methylpropyl)-borneol]	excellent noxious-insect repelling effect and durability
CC(C)C(O)C1C(=O)C2(C)CCC1C2(C)C (stereo not shown) [3-(1-hydroxy-2-methylpropyl)-camphor]	excellent noxious-insect repelling effect and durability
CCCC(O)C1C2CCC(C)(C1O)C2(C)C (stereo not shown) [3-(1-hydroxybutyl)-borneol]	excellent noxious-insect repelling effect and durability
